Measurements published in ChEMBL document CHEMBL1158467, “In vitro intrinsic clearance-based optimization of N3-phenylpyrazinones as corticotropin-releasing factor-1 (CRF1) receptor antagonists” (J Med Chem, 2009).
pIC50: −log10 of the molar value. Values after ≈ are worked out from the molar mass of the structure shown. Active and inactive are the calls of the source. The rule behind the calls is not given here.

How the values were obtained:
[1] = Half life in Sprague-Dawley rat 2 mg/kg, iv within 0.17 to 24 hrs; format: ADME, organism-based; design: dose 2 mg/kg, route intravenous; details: in vivo
[2] = Volume of distribution at steady state in Sprague-Dawley rat 2 mg/kg, iv within 0.17 to 24 hrs; format: ADME, organism-based; design: dose 2 mg/kg, route intravenous; details: in vivo, read-out: Vdss
[3] = Clearance in Sprague-Dawley rat 2 mg/kg, iv within 0.17 to 24 hrs; format: ADME, organism-based; design: dose 2 mg/kg, route intravenous; details: in vivo
[4] = biological target: T1, Corticotropin-releasing factor receptor 1 (Rattus norvegicus, UniProt P35353); test: Displacement of [125I]ovine-CRF from CRF1 receptor in rat frontal cortex by rapid filtration technique; format: tissue-based
T1 sequence (P35353 whole entry): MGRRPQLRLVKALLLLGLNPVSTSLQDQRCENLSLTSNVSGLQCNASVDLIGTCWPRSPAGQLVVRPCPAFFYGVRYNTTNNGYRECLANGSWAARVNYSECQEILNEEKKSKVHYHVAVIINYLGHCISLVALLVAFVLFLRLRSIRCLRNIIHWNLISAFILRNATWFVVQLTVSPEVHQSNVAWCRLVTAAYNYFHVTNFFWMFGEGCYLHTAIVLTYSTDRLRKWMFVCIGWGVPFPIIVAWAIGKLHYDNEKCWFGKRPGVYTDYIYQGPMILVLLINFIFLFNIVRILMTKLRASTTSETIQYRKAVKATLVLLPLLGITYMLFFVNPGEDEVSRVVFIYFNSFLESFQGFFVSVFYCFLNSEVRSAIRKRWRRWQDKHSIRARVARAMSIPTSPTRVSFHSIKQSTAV

[5] = AUC in Sprague-Dawley rat at 10 mg/kg, po dosed as aqueous suspension of 1% polysorbate 80 in 0.5% methylcellulose within 0.25 to 24 hrs; format: ADME, organism-based; design: time 0.25-24 hr, dose 10 mg/kg, route oral; details: in vivo
[6] = Cmax in Sprague-Dawley rat at 10 mg/kg, po dosed as aqueous suspension of 1% polysorbate 80 in 0.5% methylcellulose within 0.25 to 24 hrs; format: ADME, organism-based; design: dose 10 mg/kg, route oral; details: in vivo
[7] = Oral bioavailability in Sprague-Dawley rat at 10 mg/kg dosed as aqueous suspension of 1% polysorbate 80 in 0.5% methylcellulose within 0.25 to 24 hrs; format: ADME, organism-based; details: in vivo
[8] = AUC in Sprague-Dawley rat at 10 mg/kg, po dosed as aqueous solution of oleoyl macrogolglyceride/DMAC/polysorbate 80, 85:10:5 within 0.25 to 24 hrs; format: ADME, organism-based; design: time 0.25-24 hr, dose 10 mg/kg, route oral; details: plasma
[9] = Cmax in Sprague-Dawley rat at 10 mg/kg, po dosed as aqueous solution of oleoyl macrogolglyceride/DMAC/polysorbate 80, 85:10:5 within 0.25 to 24 hrs; format: ADME, organism-based; design: dose 10 mg/kg, route oral; details: Sprague-Dawley, in vivo
[10] = Oral bioavailability in Sprague-Dawley rat at 10 mg/kg dosed as aqueous solution of oleoyl macrogolglyceride/DMAC/polysorbate 80, 85:10:5 within 0.25 to 24 hrs; format: ADME, organism-based; details: Sprague-Dawley, in vivo
[11] = Aqueous solubility at pH 1; format: physicochemical
[12] = Aqueous solubility at pH 6.5; format: physicochemical
[13] = Intrinsic clearance in human liver microsomes at 1 uM; format: ADME, Microsome
Rattus norvegicus [14] = test: Anxiolytic activity in Sprague-Dawley rat at 10 mg/kg, po assessed as decrease in exit latency after 60 mins by defensive withdrawal test relative to control; format: functional; design: scale not given: the % may be the effect or the level left
[15] = Fraction unbound in Sprague-Dawley rat plasma at 10 mg/kg, po after 3 hrs by equilibrium dialysis; format: ADME, organism-based; design: dose 10 mg/kg, route oral
Rattus norvegicus [16] = test: Total plasma concentration in Sprague-Dawley rat at 10 mg/kg, po; format: ADME, organism-based; design: dose 10 mg/kg, route oral; details: in vivo
Rattus norvegicus [17] = test: Plasma free concentration in Sprague-Dawley rat at 10 mg/kg, po; format: ADME, organism-based; design: dose 10 mg/kg, route oral; details: in vivo
Rattus norvegicus [18] = test: Ex vivo receptor occupancy of CRF1 receptor in Sprague-Dawley rat brain at 10 mg/kg, po after 20 mins by autoradiography relative to [125I-tyrosine]sauvagine; format: functional
Rattus norvegicus [19] = test: Ex vivo receptor occupancy of CRF1 receptor in Sprague-Dawley rat brain at 3 mg/kg, po after 20 mins by autoradiography relative to [125I-tyrosine]sauvagine; format: functional
Rattus norvegicus [20] = test: Ex vivo receptor occupancy of CRF1 receptor in Sprague-Dawley rat brain at 1 mg/kg, po after 20 mins by autoradiography relative to [125I-tyrosine]sauvagine; format: functional
Rattus norvegicus [21] = test: Anxiolytic activity in Sprague-Dawley rat at 3 mg/kg, po assessed as decrease in exit latency after 60 mins by defensive withdrawal test relative to control; format: functional
Rattus norvegicus [22] = test: Anxiolytic activity in Sprague-Dawley rat at 1 mg/kg, po assessed as decrease in exit latency after 60 mins by defensive withdrawal test relative to control; format: functional

Structure (SMILES)	pIC50 [4]	CLint scaled at 1 µM [13]	other results
Cc1cn([C@H](C)C2CC2)c(=O)c(Nc2c(C)cc(Cl)cc2C)n1	8.51	–	half-life [1]: 12 h; Vd [2]: 12 L/kg; clearance [3]: 30 mL/min/kg; AUC [5]: 0.95 µM·h; Cmax [6]: 95 nM; bioavailability [7]: 6%; AUC [8]: 1.7 µM·h; Cmax [9]: 270 nM; bioavailability [10]: 10%; solubility [11]: 1360 µg/mL (≈ 4100 µM); solubility [12]: 13 µg/mL (≈ 39.2 µM)
COc1cc(Cl)c(Nc2nc(Cl)cn([C@H](C)C3CC3)c2=O)c(Cl)c1	–	130 mL/min/kg	–
C[C@H](C1CC1)n1cc(Cl)nc(Nc2c(Cl)cc(OC(F)F)cc2Cl)c1=O	9.34	22 mL/min/kg	–
C[C@H](C1CC1)n1cc(Cl)nc(Nc2c(Cl)cc(S(C)(=O)=O)cc2Cl)c1=O	7.20	–	–
Cc1cc(C)c(Nc2nc(Cl)cn([C@H](C)C3CC3)c2=O)cc1C	8.32	–	–
COCC(COC)Nc1nc(C)nc2c(-c3ccc(Cl)cc3Cl)c(C)nn12	8.92	–	Activity (Rattus norvegicus [14]): 61%
COc1cc(C)c(Nc2nc(Cl)cn([C@H](C)C3CC3)c2=O)cc1OC	7.82	100 mL/min/kg	–
CCCC(CCC)n1cc(Cl)nc(Nc2c(Cl)cc(C(F)(F)F)cc2Cl)c1=O	8.43	110 mL/min/kg	–
CC[C@H](COC)n1cc(Cl)nc(Nc2c(Cl)cc(C#N)cc2Cl)c1=O	8.77	210 mL/min/kg	–
CC[C@H](C1CC1)n1cc(Cl)nc(Nc2c(Cl)cc(C#N)cc2Cl)c1=O	–	160 mL/min/kg	–
CC[C@H](C1CC1)n1cc(Cl)nc(Nc2c(Cl)cc(C(F)(F)F)cc2Cl)c1=O	8.89	89 mL/min/kg	–
CC[C@H](COC)n1cc(Cl)nc(Nc2c(Cl)cc(C(F)(F)F)cc2Cl)c1=O	8.64	150 mL/min/kg	–
Cc1cc(Cl)cc(Cl)c1Nc1nc(Cl)cn([C@H](C)C2CC2)c1=O	8.92	44 mL/min/kg	–
COc1cc(C)c(Nc2nc(Cl)cn([C@H](C)C3CC3)c2=O)cc1C	–	61 mL/min/kg	–
COCC(COC)n1cc(Cl)nc(Nc2c(Cl)cc(C(F)(F)F)cc2Cl)c1=O	8.07	53 mL/min/kg	–
C[C@H](C1CC1)n1cc(Cl)nc(Nc2c(Cl)cc(C(F)(F)F)cc2Cl)c1=O	8.39	10 mL/min/kg	half-life [1]: 17 h; Vd [2]: 24 L/kg; clearance [3]: 21 mL/min/kg; AUC [5]: 7.35 µM·h; Cmax [6]: 490 nM; bioavailability [7]: 37%; fraction unbound at 3 h [15]: 0.0033; concentration (Rattus norvegicus [16]): 2000 nM; Cp(f) (Rattus norvegicus [17]): 6.7 nM; Activity (Rattus norvegicus [18]): 81%; Activity (Rattus norvegicus [19]): inactive; Activity (Rattus norvegicus [20]): inactive; Activity (Rattus norvegicus [14]): 68%; Activity (Rattus norvegicus [21]): inactive; Activity (Rattus norvegicus [22]): inactive
CC[C@H](C1CC1)n1cc(Cl)nc(Nc2c(C)cc(Cl)cc2Cl)c1=O	–	210 mL/min/kg	–
C[C@H](C1CC1)n1cc(Cl)nc(Nc2c(Cl)cc(C#N)cc2Cl)c1=O	–	58 mL/min/kg	fraction unbound at 3 h [15]: 0.019; concentration (Rattus norvegicus [16]): 120 nM; Cp(f) (Rattus norvegicus [17]): 2.3 nM; Activity (Rattus norvegicus [18]): 11%
Cc1cc(C)c(Nc2nc(Cl)cn([C@H](C)C3CC3)c2=O)c(C)c1	–	180 mL/min/kg	–

Structure (SMILES)	pIC50 [4]	CLint scaled at 1 µM [13]	other results
CCOc1cc(C)c(Nc2nc(Cl)cn([C@H](C)C3CC3)c2=O)cc1C	8.92	32 mL/min/kg	–
C[C@H](C1CC1)n1cc(Cl)nc(Nc2c(Cl)cc(Cl)cc2C#N)c1=O	7.74	–	–
C[C@H](C1CC1)n1cc(C#N)nc(Nc2c(Cl)cc(C(F)(F)F)cc2Cl)c1=O	8.12	13 mL/min/kg	fraction unbound at 3 h [15]: 0.011; concentration (Rattus norvegicus [16]): 1400 nM; Cp(f) (Rattus norvegicus [17]): 16 nM; Activity (Rattus norvegicus [18]): 68%
Cc1cc(C#N)cc(Cl)c1Nc1nc(Cl)cn([C@H](C)C2CC2)c1=O	8.54	38 mL/min/kg	fraction unbound at 3 h [15]: 0.044; concentration (Rattus norvegicus [16]): 250 nM; Cp(f) (Rattus norvegicus [17]): 11 nM; Activity (Rattus norvegicus [18]): 34%
CC[C@H](C1CC1)n1cc(Cl)nc(Nc2c(C)cc(C)cc2C)c1=O	–	340 mL/min/kg	–
C[C@@H](C1CC1)n1cc(Cl)nc(Nc2c(Cl)cc(C(F)(F)F)cc2Cl)c1=O	8.10	–	–
CC[C@H](C1CC1)n1cc(Cl)nc(Nc2c(Cl)cc(OC(F)(F)F)cc2Cl)c1=O	8.74	77 mL/min/kg	–
C[C@H](C1CC1)n1cc(Cl)nc(Nc2c(Cl)cc(OC(F)(F)F)cc2Cl)c1=O	8.19	30 mL/min/kg	–
COC[C@@H](C)n1cc(Cl)nc(Nc2c(Cl)cc(C#N)cc2Cl)c1=O	7.74	35 mL/min/kg	–
COc1cc(Cl)c(Nc2nc(Cl)cn([C@H](C)C3CC3)c2=O)cc1F	8.09	180 mL/min/kg	–
Cc1cc(C)c(Nc2nc(Cl)cn([C@H](C)C3CC3)c2=O)c(Cl)c1	9.01	140 mL/min/kg	–
CC[C@H](C1CC1)n1cc(Cl)nc(Nc2c(Cl)cc(OC)cc2Cl)c1=O	9.36	400 mL/min/kg	–
COc1cc(Cl)c(C)cc1Nc1nc(Cl)cn([C@H](C)C2CC2)c1=O	7.44	–	–
Cc1cc(Cl)c(Nc2nc(Cl)cn([C@H](C)C3CC3)c2=O)cc1C#N	7.72	160 mL/min/kg	–
COC[C@@H](C)n1cc(Cl)nc(Nc2c(Cl)cc(C(F)(F)F)cc2Cl)c1=O	7.96	32 mL/min/kg	–
COC[C@@H](C1CC1)n1cc(Cl)nc(Nc2c(Cl)cc(C(F)(F)F)cc2Cl)c1=O	8.80	64 mL/min/kg	–
C[C@H](C1CC1)n1cc(Cl)nc(Nc2cc3c(cc2Cl)OCC3)c1=O	6.92	–	–
C[C@H](C1CC1)n1cc(C#N)nc(Nc2c(Cl)cc(OC(F)F)cc2Cl)c1=O	8.37	–	half-life [1]: 12 h; Vd [2]: 13 L/kg; clearance [3]: 21 mL/min/kg; AUC [5]: 1.9 µM·h; Cmax [6]: 160 nM; bioavailability [7]: 10%; AUC [8]: 15 µM·h; Cmax [9]: 1600 nM; bioavailability [10]: 80%; solubility [11]: < 1 µg/mL; solubility [12]: < 1 µg/mL; fraction unbound at 3 h [15]: 0.03; Activity (Rattus norvegicus [18]): 55%; Activity (Rattus norvegicus [14]): 61%
C[C@H](C1CC1)n1cc(Cl)nc(Nc2c(Cl)cc(Cl)cc2Cl)c1=O	9.04	–	–
